# Activity calls are given as the source filed them.
# Legend:
# cells [1] = experiment: cells
# Major prion protein = Major prion protein (Homo sapiens, UniProt P04156); format: functional, cell-based
# cells [2] = format: functional, cell-based
# [3] = target: T1, Trace amine-associated receptor 1 (Homo sapiens, UniProt Q96RJ0); experiment: Counterscreen for agonists of the human trace amine associated receptor 1 (hTAAR1): Fluorescence-based cell-based high throughput dose response assay to identify hTAAR1 agonist that also desensitize TAAR1 receptor response.; format: functional
# T1 sequence (Q96RJ0 whole entry): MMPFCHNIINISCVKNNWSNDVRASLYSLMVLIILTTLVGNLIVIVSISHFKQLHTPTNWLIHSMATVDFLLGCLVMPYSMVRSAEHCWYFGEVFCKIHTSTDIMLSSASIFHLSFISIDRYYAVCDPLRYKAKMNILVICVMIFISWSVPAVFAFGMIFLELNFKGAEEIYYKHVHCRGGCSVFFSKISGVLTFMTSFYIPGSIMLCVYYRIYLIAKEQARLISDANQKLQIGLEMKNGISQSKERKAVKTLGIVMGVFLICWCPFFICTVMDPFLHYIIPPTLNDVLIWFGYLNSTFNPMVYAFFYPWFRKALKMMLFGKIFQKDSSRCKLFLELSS
# [4] = target: T1, Trace amine-associated receptor 1; experiment: Fluorescence-based cell-based high throughput dose response assay to identify agonists of the human trace amine associated receptor 1 (TAAR1).; format: functional
# cells [5] = format: functional, cell-based; remark: listed apart in the source
# [6] = viability loss in HepG2 hepatoma cells – cell-based, ATP luminescence, cherry-pick, activator set 2, cytotoxicity control, dose response (AID 1053143); format: functional
# [7] = toxicity toward HepG2 liver cells – cell-based, plate reader, cherry-pick, antagonist series, cytotoxicity control, dose response (AID 743416); format: functional
# Protein skinhead-1 = target: T2, Protein skinhead-1 (Caenorhabditis elegans, UniProt P34707); format: functional
# T2 sequence (P34707 whole entry): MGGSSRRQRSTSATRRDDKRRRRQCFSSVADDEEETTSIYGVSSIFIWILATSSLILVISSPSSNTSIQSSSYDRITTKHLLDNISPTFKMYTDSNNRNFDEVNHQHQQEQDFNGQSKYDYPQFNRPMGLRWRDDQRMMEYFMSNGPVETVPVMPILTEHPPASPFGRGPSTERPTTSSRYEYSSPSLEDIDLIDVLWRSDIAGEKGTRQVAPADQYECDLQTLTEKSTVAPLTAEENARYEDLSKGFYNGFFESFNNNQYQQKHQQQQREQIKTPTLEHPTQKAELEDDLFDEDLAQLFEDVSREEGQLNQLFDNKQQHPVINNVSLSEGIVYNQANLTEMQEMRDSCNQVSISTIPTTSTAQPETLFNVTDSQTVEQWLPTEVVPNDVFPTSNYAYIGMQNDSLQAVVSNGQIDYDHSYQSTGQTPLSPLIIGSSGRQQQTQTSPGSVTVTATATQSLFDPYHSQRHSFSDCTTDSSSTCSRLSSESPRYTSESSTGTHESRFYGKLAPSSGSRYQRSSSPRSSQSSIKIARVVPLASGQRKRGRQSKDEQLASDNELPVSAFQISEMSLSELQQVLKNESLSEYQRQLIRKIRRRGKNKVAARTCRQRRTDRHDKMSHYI
# [8] = blockers of bursicon-stimulated LGR2 cAMP reporter – cell-based, HEK293, CRE-luciferase reporter, cherry pick, set 2, dose response (AID 743343); format: functional;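 further: transfected cells were stimulated with diluted bursicon conditioned medium after compound addition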
# Streptokinase A = target: T3, Streptokinase A (Streptococcus pyogenes serotype M1, UniProt P10520); experiment: viability-normalized secreted streptokinase activity reduction – plasminogen activation absorbance, OD405, dose response (AID 1914); format: functional, Streptococcus pyogenes M1 GAS;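 further: secreted streptokinase activity via plasminogen activation per viability signal from cell pellet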
# T3 sequence (P10520 whole entry): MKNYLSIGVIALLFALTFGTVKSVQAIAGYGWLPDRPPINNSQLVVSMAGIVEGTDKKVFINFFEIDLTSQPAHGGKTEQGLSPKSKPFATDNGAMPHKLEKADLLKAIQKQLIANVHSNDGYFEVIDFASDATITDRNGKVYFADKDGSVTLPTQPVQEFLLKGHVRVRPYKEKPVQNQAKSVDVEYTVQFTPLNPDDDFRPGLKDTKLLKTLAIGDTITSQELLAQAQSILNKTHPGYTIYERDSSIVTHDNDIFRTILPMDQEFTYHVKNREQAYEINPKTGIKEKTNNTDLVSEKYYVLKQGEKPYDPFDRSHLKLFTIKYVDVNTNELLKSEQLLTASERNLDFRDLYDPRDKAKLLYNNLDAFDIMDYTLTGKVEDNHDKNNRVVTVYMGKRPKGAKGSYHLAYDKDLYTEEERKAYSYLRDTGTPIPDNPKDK
# Streptococcus = experiment: GAS UMAA2166 growth inhibition – luminescence, BacTiterGlo, counter-screen for streptokinase expression inhibitor project, dose response (AID 1915); format: functional, organism-based;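 further: potency for reduction of bacterial viability or growth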
# [9] = viability of uninfected HEp-2 cells – cell-based, HTS, cytotoxicity control for RSV inhibitor project, dose response (AID 2410); format: functional; conditions: human respiratory syncytial virus
# [10] = test system: Streptococcus sp. 'group A'; experiment: Streptococcus pyogenes SK(-)GAS viability under kanamycin – luminescence, BacTiterGlo, confirmation, counter-screen for streptokinase expression inhibitor project, dose response (AID 1900); format: functional, organism-based
# [11] = A549 cell cytotoxicity, dose response, cytotoxicity control, plate reader, cherry-pick, antagonist series (AID 743412); format: functional, cell-based
# cells [12] = experiment: cells; remark: listed apart in the source
# [13] = blockade of melanocortin 4 receptor signaling – cell-based, plate reader, cherry pick, counter-screen for LGR2 antagonist project, dose response (AID 743444); format: functional;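 further: transfected HEK 293 cells stimulated with alpha-MSH peptide; potency of inhibitors of the alpha-MSH evoked signal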
smiles,measurement,setting,value
CCOC(=O)c1c(-c2ccccc2)oc2cc(Br)c(O)cc12,IC50,cells [1],60 µM (inactive)
same,IC50,Major prion protein,1.44 µM (active)
O=C(NCCc1ccccc1)C1CCCN(S(=O)(=O)c2cccc3nsnc23)C1 (centres undefined),IC50,cells [2],> 29.9 µM (inactive)
same,IC50,[3],2.2 µM (active)
same,EC50,[4],669 nM (active)
same,EC50,cells [5],> 29.9 µM (inactive)
Cc1nnc(S)c2nn(-c3ccccc3F)c(C)c12,IC50,cells [1],> 138 µM (inactive)
same,IC50,Major prion protein,8.71 µM (active)
O=C(Nc1ccc2c(c1)CCC2)Nc1ccccc1Cl,AC50,[6],26 µM (active)
Cc1ccc2nc(-c3ccc(N)cc3)sc2c1,AC50,[7],50.6 µM (active)
same,IC50,Protein skinhead-1,> 100 µM (inactive)
same,AC50,[8],1.88 µM (active)
same,EC50,Streptokinase A,> 150 µM (not active)
same,EC50,Streptococcus,> 150 µM (not active)
same,CC50,[9],> 50 µM (active)
same,EC50,[10],> 150 µM (not active)
same,AC50,[11],51.3 µM (active)
same,IC50,cells [12],29.7 µM (active)
same,AC50,[13],1.55 µM (active)

# From ChEMBL document CHEMBL1201862, “PubChem BioAssay data set” (2004)
